Results published in ChEMBL document CHEMBL2086392, “Isomannide derivatives as new class of inhibitors for human kallikrein 7” (Bioorg Med Chem Lett, 2012).
pIC50, pKi: −log10 of the molar value.

Assays:
[1] = Solubility of the compound in 10% DMSO; format: physicochemical
Kallikrein-5 [2] = biological target: T1, Kallikrein-5 (Homo sapiens, UniProt Q9Y337); assay: Inhibition of human recombinant KLK5 expressed in insect cell/baculovirus using Abz-KLYSSKQ-EDDnp as substrate by FRET analysis
T1 sequence (Q9Y337 whole entry): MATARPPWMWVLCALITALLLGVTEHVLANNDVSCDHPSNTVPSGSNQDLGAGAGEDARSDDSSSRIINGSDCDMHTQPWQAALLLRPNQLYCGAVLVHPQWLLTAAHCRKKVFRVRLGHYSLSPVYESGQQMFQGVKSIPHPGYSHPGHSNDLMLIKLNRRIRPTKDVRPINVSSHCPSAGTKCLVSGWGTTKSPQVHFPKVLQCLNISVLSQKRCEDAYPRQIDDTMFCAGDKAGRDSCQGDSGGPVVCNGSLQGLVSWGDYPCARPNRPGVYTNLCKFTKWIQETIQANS

Kallikrein-7 [3] = biological target: T2, Kallikrein-7 (Homo sapiens, UniProt P49862); assay: Inhibition of human recombinant KLK7 expressed in insect cell/baculovirus using Abz-KLYSSKQ-EDDnp as substrate by FRET analysis
[4] = Solubility of the compound in aqueous buffer; format: physicochemical
Kallikrein-5 [5] = biological target: T1, Kallikrein-5; assay: Competitive inhibition of human KLK5 expressed in insect cell/baculovirus using Abz-KLYSSKQ-EDDnp as substrate by Dixon plot analysis
Kallikrein-7 [6] = biological target: T2, Kallikrein-7; assay: Competitive inhibition of recombinant human KLK7 expressed in insect cell/baculovirus using Abz-KLYSSKQ-EDDnp as substrate by Dixon plot analysis

T2 sequence (P49862 whole entry): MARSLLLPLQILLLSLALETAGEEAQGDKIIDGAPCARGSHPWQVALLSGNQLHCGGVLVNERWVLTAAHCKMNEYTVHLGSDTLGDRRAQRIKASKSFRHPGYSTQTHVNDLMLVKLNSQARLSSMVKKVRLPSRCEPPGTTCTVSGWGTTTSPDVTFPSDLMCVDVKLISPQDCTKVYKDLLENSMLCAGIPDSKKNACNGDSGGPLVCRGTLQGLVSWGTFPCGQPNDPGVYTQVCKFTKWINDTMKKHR

solubility [1]	pIC50 (Kallikrein-5 [2])	pIC50 (Kallikrein-7 [3])	solubility [4]	pKi (Kallikrein-5 [5])	pKi (Kallikrein-7 [6])	SMILES
Insoluble						O=C(N[C@@H]1CO[C@H]2[C@@H]1OC[C@H]2OCc1ccccc1)/C(=C/c1ccc(Cl)cc1)NC(=O)c1ccccc1 (stereo in doubt)
Insoluble						O=C(N[C@@H]1CO[C@H]2[C@@H]1OC[C@H]2OCc1ccccc1)/C(=C/c1ccc(Br)cc1)NC(=O)c1ccccc1 (stereo in doubt)
Insoluble						O=C(N[C@@H]1CO[C@H]2[C@@H]1OC[C@H]2OCc1ccccc1)/C(=C/c1ccc2ccccc2c1)NC(=O)c1ccccc1
Insoluble						COc1ccc(/C=C(\NC(=O)c2ccccc2)C(=O)N[C@@H]2CO[C@H]3[C@@H]2OC[C@H]3OCc2ccccc2)cc1 (stereo in doubt)
Insoluble						O=C(N[C@@H]1CO[C@H]2[C@@H]1OC[C@H]2OCc1ccccc1)/C(=C/c1ccc(F)cc1)NC(=O)c1ccccc1 (stereo in doubt)
Insoluble						O=C(N[C@@H]1CO[C@H]2[C@@H]1OC[C@H]2OCc1ccccc1)/C(=C/c1ccc(C(F)(F)F)cc1)NC(=O)c1ccccc1 (stereo in doubt)
Insoluble						O=C(N[C@@H]1CO[C@H]2[C@@H]1OC[C@H]2OCc1ccccc1)/C(=C/c1ccccc1)NC(=O)c1ccccc1
	3.49	3.71	soluble	3.70	4.12	O=C(N[C@@H]1CO[C@H]2[C@@H]1OC[C@H]2OCc1ccccc1)/C(=C/c1cccnc1)NC(=O)c1ccccc1 (stereo in doubt)

The remaining lines, values behind:

SMILES	solubility [1]	pIC50 (Kallikrein-5 [2])	pIC50 (Kallikrein-7 [3])	solubility [4]	pKi (Kallikrein-5 [5])	pKi (Kallikrein-7 [6])
O=C(N[C@@H]1CO[C@H]2[C@@H]1OC[C@H]2OCc1ccccc1)/C(=C/c1cc2ccccc2o1)NC(=O)c1ccccc1	Insoluble					
O=C(N[C@@H]1CO[C@H]2[C@@H]1OC[C@H]2OCc1ccccc1)/C(=C/c1cccs1)NC(=O)c1ccccc1 (stereo in doubt)		4.00	4.88	soluble	4.15	5.74
O=C(N[C@@H]1CO[C@H]2[C@@H]1OC[C@H]2OCc1ccccc1)/C(=C/c1ccc2c(c1)OCO2)NC(=O)c1ccccc1 (stereo in doubt)		< 3.00	3.69	soluble	3.45	4.10
O=C(N[C@@H]1CO[C@H]2[C@@H]1OC[C@H]2OCc1ccccc1)/C(=C/c1ccco1)NC(=O)c1ccccc1 (stereo in doubt)		4.00	4.79	soluble	4.15	5.52
CC(=O)N/C(=C\c1cccs1)C(=O)N[C@@H]1CO[C@H]2[C@@H]1OC[C@H]2OCc1ccccc1 (stereo in doubt)		3.99	3.79	soluble	4.14	4.11
O=C(N[C@@H]1CO[C@H]2[C@@H]1OC[C@H]2OCc1ccccc1)/C(=C/c1c[nH]c2ccccc12)NC(=O)c1ccccc1 (stereo in doubt)	Insoluble					
O=C(N[C@@H]1CO[C@H]2[C@@H]1OC[C@H]2OCc1ccccc1)/C(=C/c1cc2ccccc2s1)NC(=O)c1ccccc1	Insoluble					
